What was measured:
THP1 cells = experiment: Effects of kinase inhibitors on virus-induced expression of BA metabolism genes and IFNB1 (qPCR); type: cell-based, human; details: inhibitor treatment, then HSV-1 or SeV for 4 hours
Raw264.7 cells [1] = experiment: Induction of type I IFNs and other antiviral genes by BAs (qPCR); type: cell-based; details: indicated concentrations of BAs
Description: D. Induction of type I IFNs and other antiviral genes by BAs. Raw264.7 cells were treated by the indicated concentrations of the indicated BAs, followed by qPCR analysis of the expression of the indicated genes. L. Induction of type I IFNs and other antiviral genes by BAs. Raw264.7 cells were treated with LCA (200 μM) or CDCA (200 μM) for the indicated times, followed by qPCR analysis of the expression of the indicated genes.

Raw264.7 cells [2] = experiment: Induction of phosphorylation of TBK1 and IRF3 by BAs (immunoblotting); type: cell-based; details: indicated concentrations of CDCA and LCA
Description: (§1) E. Induction of phosphorylation of TBK1 and IRF3 by BAs. Raw264.7 cells were treated by the indicated concentrations of CDCA and LCA, followed by immunoblotting analysis with the indicated antibodies. Cells were lysed with RIPA buffer plus complete protease inhibitors and 20 mM NEM, and lysates were sonicated for 1 min. The lysates were centrifuged at 14000 rpm for 20 min at 4° C. The supernatants were incubated with respective antibodies at 4° C. overnight before protein G beads were added for 2 h. The beads were washed with cold PBS plus 0.5 M NaCl for three times followed by an additional wash with PBS. Proteins were separated by 8% SDS-PAGE, followed by immunoblot analysis with the indicated antibodies.

VSV-GFP = type: cell-based
monocytes = monocytes in vitro; cited from earlier work
TGR5 = details: Tgr5+/+ macrophages (BMDMs); infected half an hour, then treatment for 6 hours
SRC = experiment: Induction of pY416 of SRC by INT-777 and BA treatments (immunoblotting); type: cell-based; details: HEK293 cells, treatment for 1 hours
Description: G. Induction of pY416 of SRC by INT-777 and BA treatments. HEK293 cells were treated with DMSO, INT-777 or the indicated BAs for 1 hours, followed by immunoblotting analysis with the indicated antibodies.
as §1, with “Cells” for “E. Induction of phosphorylation of TBK1 and IRF3 by BAs. Raw264.7 cells were treated by the indicated concentrations of CDCA and LCA, followed by immunoblotting analysis with the indicated antibodies. Cells”

Structure (SMILES) | HSV-1- and SeV-induced transcription of CYP7A1, CYP7B1, CYP27A1 and OATP genes (THP1 cells) | transcription of downstream innate immunity genes including IFNB1, CXCL10 and ISG56 (Raw264.7 cells [1]) | phosphorylation of TBK1 and IRF3 (Raw264.7 cells [2]) | VSV-GFP replication (VSV-GFP) | production of interleukin-1, interleukin-6 and tumor necrosis factor-α (monocytes) | HSV-1- and SeV-induced transcription of Ifnb1 (TGR5) | phosphorylation of SRC at Y416 (SRC)
Cc1ccc2nc(NCCN)c3ncc(C)n3c2c1 [BMS-345541] | abolished |  |  |  |  |  | 
C[C@H](CCC(=O)O)[C@H]1CC[C@H]2[C@@H]3[C@H](O)C[C@@H]4C[C@H](O)CC[C@]4(C)[C@H]3CC[C@]12C [CDCA, chenodeoxycholic acid] |  | potently induced | induced phosphorylation | dramatically inhibited | inhibits | potentiated | 
CC[C@H]1[C@@H](O)[C@@H]2[C@H](C[C@H](O)[C@]3(C)[C@@H]([C@H](C)C[C@H](C)C(=O)O)CC[C@@H]23)[C@@]2(C)CC[C@@H](O)C[C@@H]12 [INT-777] |  |  |  |  |  | potentiated | induced phosphorylation
